Data published in patent publication US11053213B2, “Pharmaceutical compounds” (ALMAC DISCOVERY LIMITED, priority 2016, dated 2021).

These molecules were tested against USP19 (Homo sapiens (Human), UniProt O94966) (assay: USP19 activity assay (fluorescence polarisation, Ubiquitin-Lys-TAMRA substrate)). Conditions: full-length USP19 2.5 nM, 30 min pre-incubation, Ub substrate 500 nM; average of at least two duplicate experiments.
Assay type: biochemical

Chain of USP19 (O94966 whole entry): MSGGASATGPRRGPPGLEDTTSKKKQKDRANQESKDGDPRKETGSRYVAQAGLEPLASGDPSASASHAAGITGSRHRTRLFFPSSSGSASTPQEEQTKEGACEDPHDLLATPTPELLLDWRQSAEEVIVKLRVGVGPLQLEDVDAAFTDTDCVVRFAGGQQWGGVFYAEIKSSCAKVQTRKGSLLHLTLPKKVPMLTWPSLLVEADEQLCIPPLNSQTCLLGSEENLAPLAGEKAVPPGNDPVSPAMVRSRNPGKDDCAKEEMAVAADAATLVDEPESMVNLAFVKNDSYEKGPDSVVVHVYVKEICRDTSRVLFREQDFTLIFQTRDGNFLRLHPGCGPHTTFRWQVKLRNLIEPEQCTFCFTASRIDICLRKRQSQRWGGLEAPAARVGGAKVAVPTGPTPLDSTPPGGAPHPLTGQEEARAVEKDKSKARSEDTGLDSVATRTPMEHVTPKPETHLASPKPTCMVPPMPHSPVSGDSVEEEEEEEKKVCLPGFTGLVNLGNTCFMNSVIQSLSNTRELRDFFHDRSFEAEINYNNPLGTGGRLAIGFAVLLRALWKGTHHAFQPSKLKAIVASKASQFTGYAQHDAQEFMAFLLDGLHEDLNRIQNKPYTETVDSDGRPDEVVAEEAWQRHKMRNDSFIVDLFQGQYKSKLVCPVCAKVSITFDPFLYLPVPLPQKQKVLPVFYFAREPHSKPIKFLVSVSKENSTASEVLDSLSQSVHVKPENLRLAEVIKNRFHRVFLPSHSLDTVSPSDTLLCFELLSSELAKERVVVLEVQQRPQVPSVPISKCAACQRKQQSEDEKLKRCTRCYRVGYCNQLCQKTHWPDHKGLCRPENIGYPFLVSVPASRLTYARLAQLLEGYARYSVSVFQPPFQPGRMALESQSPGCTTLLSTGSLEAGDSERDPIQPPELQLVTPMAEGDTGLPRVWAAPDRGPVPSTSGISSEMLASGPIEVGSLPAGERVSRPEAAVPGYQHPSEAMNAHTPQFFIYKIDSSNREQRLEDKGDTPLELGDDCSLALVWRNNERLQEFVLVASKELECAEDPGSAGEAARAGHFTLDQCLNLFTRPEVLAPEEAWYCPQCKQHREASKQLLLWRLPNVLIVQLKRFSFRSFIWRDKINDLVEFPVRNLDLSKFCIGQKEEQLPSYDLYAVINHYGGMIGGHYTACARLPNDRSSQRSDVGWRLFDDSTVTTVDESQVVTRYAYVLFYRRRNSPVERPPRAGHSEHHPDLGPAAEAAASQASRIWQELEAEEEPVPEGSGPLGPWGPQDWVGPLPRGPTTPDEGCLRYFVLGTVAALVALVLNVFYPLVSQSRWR

SMILES	IC50 [µM]
CN(C)C(=O)c1cn(CC2(O)CCN(C(=O)c3c[nH]c4ccccc34)CC23CCCC3)c(=O)cc1-c1ccccc1 (stereo not shown) [Example 190, 1-((10-Hydroxy-7-(1H-indole-3-carbonyl)-7-azaspiro[4.5]decan-10-yl)methyl)-N,N-dimethyl-6-oxo-4-phenyl-1,6-dihydropyridine-3-carboxamide]	50 to 250
CCOC(=O)c1cn(CC2(O)CCN(C(=O)C[C@@H](C)c3ccccc3)CC2)c(=O)cc1-c1ccccc1 [Example 13, (R)-Ethyl 1-((4-hydroxy-1-(3-phenylbutanoyl)piperidin-4-yl)methyl)-6-oxo-4-phenyl-1,6-dihydropyridine-3-carboxylate]	50 to 250
CN(C)C(=O)c1cn(CC2(O)CCN(C(=O)c3ncoc3-c3ccccc3)CC23CCCC3)c(=O)cc1-c1ccccc1 (stereo not shown) [Example 192, 1-((10-Hydroxy-7-(5-phenyloxazole-4-carbonyl)-7-azaspiro[4.5]decan-10-yl)methyl)-N,N-dimethyl-6-oxo-4-phenyl-1,6-dihydropyridine-3-carboxamide]	5 to 50
COc1ccccc1-c1cc(=O)n(CC2(O)CCN(C(=O)C[C@@H](C)c3ccccc3)CC2)cc1C(=O)N(C)C(C)C [Example 89, (R)-1-((4-Hydroxy-1-(3-phenylbutanoyl)piperidin-4-yl)methyl)-N-isopropyl-4-(2-methoxyphenyl)-N-methyl-6-oxo-1,6-dihydropyridine-3-carboxamide]	0.5 to 5
CN(C)C(=O)c1cn(CC2(O)CCN(C(=O)C3CC(C(F)(F)F)C3)CC23CCCC3)c(=O)cc1-c1ccccc1 (stereo not shown) [Example 229, 1-((10-Hydroxy-7-(3-(trifluoromethyl)cyclobutane-1-carbonyl)-7-azaspiro[4.5]decan-10-yl)methyl)-N,N-dimethyl-6-oxo-4-phenyl-1,6-dihydropyridine-3-carboxamide]	5 to 50
CON(C)C(=O)c1cn(CC2(O)CCN(C(=O)C[C@@H](C)c3ccccc3)CC2)c(=O)cc1-c1ccccc1 [Example 97, (R)-1-((4-Hydroxy-1-(3-phenylbutanoyl)piperidin-4-yl)methyl)-N-methoxy-N-methyl-6-oxo-4-phenyl-1,6-dihydropyridine-3-carboxamide]	5 to 50
C[C@H](CC(=O)N1CCC(O)(Cn2cnc(C3=CCCCC3)cc2=O)CC1)c1ccccc1 [Example 28, (R)-6-(Cyclohex-1-en-1-yl)-3-((4-hydroxy-1-(3-phenylbutanoyl)piperidin-4-yl)methyl)pyrimidin-4(3H)-one]	50 to 250
CN(C)C(=O)c1cn(CC2(O)CCN(C(=O)c3nc(C(F)(F)F)cs3)CC23CCCC3)c(=O)cc1-c1ccccc1 (stereo not shown) [Example 245, 1-((10-Hydroxy-7-(4-(trifluoromethyl)thiazole-2-carbonyl)-7-azaspiro[4.5]decan-10-yl)methyl)-N,N-dimethyl-6-oxo-4-phenyl-1,6-dihydropyridine-3-carboxamide]	5 to 50
C[C@H](CC1CCC1)C(=O)N1CC[C@@](O)(Cn2cc(C(=O)N(C)C)c(-c3ccccc3)cc2=O)C2(CCCC2)C1 [Example 214, 1-(((S)-7-((R)-3-Cyclobutyl-2-methylpropanoyl)-10-hydroxy-7-azaspiro[4.5]decan-10-yl)methyl)-N,N-dimethyl-6-oxo-4-phenyl-1,6-dihydropyridine-3-carboxamide]	< 0.5
O=C(C[C@H](c1ccccc1)C(F)(F)F)N1CCC(O)(Cn2cnc(-c3ccccc3F)cc2=O)CC1 [Example 48, (R)-6-(2-Fluorophenyl)-3-((4-hydroxy-1-(4,4,4-trifluoro-3-phenylbutanoyl)piperidin-4-yl)methyl)pyrimidin-4(3H)-one]	50 to 250
CC(C)(CC(=O)N1CCC(O)(Cn2cnc(-c3ccccc3F)cc2=O)C(C)(C)C1)c1ccccc1 (racemic) [Example 70, (R,S)-6-(2-Fluorophenyl)-3-((4-hydroxy-3,3-dimethyl-1-(3-methyl-3-phenylbutanoyl)piperidin-4-yl)methyl)pyrimidin-4(3H)-one]	5 to 50
C[C@H](CC1CCCCC1)C(=O)N1CC[C@@](O)(Cn2cc(C(=O)N(C)C)c(-c3ccccc3F)cc2=O)C2(CCCC2)C1 [Example 226, 1-(((S)-7-((R)-3-Cyclohexyl-2-methylpropanoyl)-10-hydroxy-7-azaspiro[4.5]decan-10-yl)methyl)-4-(2-fluorophenyl)-N,N-dimethyl-6-oxo-1,6-dihydropyridine-3-carboxamide]	< 0.5
C[C@H](CC(=O)N1CCC(O)(Cn2cc(C=O)c(-c3ccccc3)cc2=O)CC1)c1ccccc1 [Example 45, (R)-1-((4-Hydroxy-1-(3-phenylbutanoyl)piperidin-4-yl)methyl)-6-oxo-4-phenyl-1,6-dihydropyridine-3-carbaldehyde]	50 to 250
C[C@H](CC1CCC1)C(=O)N1CC[C@@](O)(Cn2cc(C(=O)N3CCNCC3)c(-c3ccccc3F)cc2=O)C(C)(C)C1 [Example 236, 1-(((S)-1-((R)-3-Cyclobutyl-2-methylpropanoyl)-4-hydroxy-3,3-dimethylpiperidin-4-yl)methyl)-4-(2-fluorophenyl)-5-(piperazine-1-carbonyl)pyridin-2(1H)-one]	< 0.5
CC(C)N(C)C(=O)c1cn(CC2(O)CCN(C(=O)C3(c4cccs4)CC3)CC2)c(=O)cc1-c1ccccc1 [Example 72, 1-((4-Hydroxy-1-(1-(thiophen-2-yl)cyclopropane-1-carbonyl)piperidin-4-yl)methyl)-N-isopropyl-N-methyl-6-oxo-4-phenyl-1,6-dihydropyridine-3-carboxamide]	50 to 250
C[C@H](CC1CCCCC1)C(=O)N1CCC(O)(Cn2cc(C(=O)N(C)C)c(-c3cccc(CO)c3)cc2=O)C2(CCCC2)C1 (stereo partly drawn) [Example 156, 1-((7-((R)-3-Cyclohexyl-2-methylpropanoyl)-10-hydroxy-7-azaspiro[4.5]decan-10-yl)methyl)-4-(3-(hydroxymethyl)phenyl)-N,N-dimethyl-6-oxo-1,6-dihydropyridine-3-carboxamide]	< 0.5
C[C@H](CC(=O)N1CCC(O)(Cn2cc(C(=O)N(C)c3ccccc3)c(-c3ccccc3)cc2=O)CC1)c1ccccc1 [Example 107, (R)-1-((4-Hydroxy-1-(3-phenylbutanoyl)piperidin-4-yl)methyl)-N-methyl-6-oxo-N,4-diphenyl-1,6-dihydropyridine-3-carboxamide]	5 to 50
CN(C)C(=O)c1cn(CC2(O)CCN(C(=O)C3(C)CCCC3)CC23CCCC3)c(=O)cc1-c1ccccc1 (stereo not shown) [Example 186, 1-((10-Hydroxy-7-(1-methylcyclopentane-1-carbonyl)-7-azaspiro[4.5]decan-10-yl)methyl)-N,N-dimethyl-6-oxo-4-phenyl-1,6-dihydropyridine-3-carboxamide]	50 to 250
O=C(CCC1CCC1)N1CCC(O)(Cn2cnc(-c3ccccc3F)cc2=O)CC1 [Example 3, 3-((1-(3-Cyclobutylpropanoyl)-4-hydroxypiperidin-4-yl)methyl)-6-(2-fluorophenyl)pyrimidin-4(3H)-one]	50 to 250
CC(CC(F)(F)F)C(=O)N1CCC(O)(Cn2cnc(-c3ccccc3F)cc2=O)C(C)(C)C1 (stereo not shown) [Example 143, 6-(2-Fluorophenyl)-3-((4-hydroxy-3,3-dimethyl-1-(4,4,4-trifluoro-2-methylbutanoyl)piperidin-4-yl)methyl)pyrimidin-4(3H)-one]	5 to 50
CCOC(=O)c1cn(C[C@]2(O)CCN(C(=O)[C@H](C)CC3CCCCC3)CC23CCCC3)c(=O)cc1-c1ccccc1 [Example 252, Ethyl 1-(((S)-7-((R)-3-cyclohexyl-2-methylpropanoyl)-10-hydroxy-7-azaspiro[4.5]decan-10-yl)methyl)-6-oxo-4-phenyl-1,6-dihydropyridine-3-carboxylate]	< 0.5
CN(C)C(=O)c1cn(CC2(O)CCN(C(=O)CCC(F)(F)F)CC23CCCC3)c(=O)cc1-c1ccccc1 (stereo not shown) [Example 172, 1-((10-Hydroxy-7-(4,4,4-trifluorobutanoyl)-7-azaspiro[4.5]decan-10-yl)methyl)-N,N-dimethyl-6-oxo-4-phenyl-1,6-dihydropyridine-3-carboxamide]	5 to 50
C[C@H](CC(=O)N1CCC(O)(Cn2cc(CN(C)C)c(-c3ccccc3)cc2=O)CC1)c1ccccc1 [Example 46, (R)-5-((Dimethylamino)methyl)-1-((4-hydroxy-1-(3-phenylbutanoyl)piperidin-4-yl)methyl)-4-phenylpyridin-2(1H)-one]	50 to 250
CC(C)C(CC1CCCCC1)C(=O)N1CCC(O)(Cn2cnc(-c3ccccc3F)cc2=O)C(C)(C)C1 (stereo not shown) [Example 25, 3-((1-(2-(Cyclohexylmethyl)-3-methylbutanoyl)-4-hydroxy-3,3-dimethylpiperidin-4-yl)methyl)-6-(2-fluorophenyl)pyrimidin-4(3H)-one]	0.5 to 5
C[C@H](CC(=O)N1CCC(O)(Cn2cnc(-c3cccc4cnn(C)c34)cc2=O)CC1)c1ccccc1 [Example 16, (R)-3-((4-Hydroxy-1-(3-phenylbutanoyl)piperidin-4-yl)methyl)-6-(1-methyl-1H-indazol-7-yl)pyrimidin-4(3H)-one]	5 to 50
C[C@H](CC1CCCCC1)C(=O)N1CC[C@](O)(Cn2cc(C(=O)N3CCNCC3)c(-c3ccccc3)cc2=O)C(C)(C)C1 [Example 125, 1-(((R)-1-((R)-3-Cyclohexyl-2-methylpropanoyl)-4-hydroxy-3,3-dimethylpiperidin-4-yl)methyl)-4-phenyl-5-(piperazine-1-carbonyl)pyridin-2(1H)-one]	5 to 50
O=C(c1cn(C[C@]2(O)CCN(C(=O)[C@H](CO)CC(F)(F)F)CC23CCCC3)c(=O)cc1-c1ccccc1)N1CCNCC1 [Example 249, 1-(((S)-10-Hydroxy-7-((S)-4,4,4-trifluoro-2-(hydroxymethyl)butanoyl)-7-azaspiro[4.5]decan-10-yl)methyl)-4-phenyl-5-(piperazine-1-carbonyl)pyridin-2(1H)-one]	< 0.5
C[C@H](CC1CCCCC1)C(=O)N1CCC(O)(Cn2cnc(-c3ccnn3C)cc2=O)C(C)(C)C1 (stereo partly drawn) [Example 131, 3-((1-((R)-3-Cyclohexyl-2-methylpropanoyl)-4-hydroxy-3,3-dimethylpiperidin-4-yl)methyl)-6-(1-methyl-1H-pyrazol-5-yl)pyrimidin-4(3H)-one]	0.5 to 5
